# Assay results published in patent US7829665B2 (priority 2005, dated 2010).
# Target: T1, full-length NS3/NS4A-2 (HCV NS3 protease) (Hepatitis C virus genotype 1a, UniProt P27958)
# T1 construct: Recombinant E. coli or Baculovirus full-length NS3 was diluted to 3.33 μM with assay buffer; made in house; host or cells: E. coli or baculovirus (BV) expression system
# Assay: NS3-NS4 protease assay / NS3 inhibition assay (RETS1 substrate, fluorescence kinetic read)
# Type: biochemical
# Details: Table 22; read-out: NS3-NS4 IC50
# Description: NS3 complex formation with NS4A-2.
# Recombinant E. coli or Baculovirus full-length NS3 was diluted to 3.33 μM with assay buffer and transferred material to an eppendorf tube and place in water bath in 4° C. refrigerator. The appropriate amount of NS4A-2 to 8.3 mM in assay buffer was added to equal the volume of NS3 in step 2.1.1 (conversion factor—3.8 mg/272 μL assay buffer). The material was transferred to an eppendorf tube and place in water bath in 4° C. refrigerator.
# After equilibration to 4° C., equal volumes of NS3 and NS4A-2 solutions were combined in an eppendorf tube, mix gently with a manual pipettor, and incubate mixture for 15 minutes in the 4° C. water bath. Final concentrations in the mixture are 1.67 μM NS3, 4.15 mM NS4A-2 (2485-fold molar excess NS4A-2).
# After 15 minutes at 4° C., the NS3/NS4A-2 eppendorf tube was removed and place it in a room temperature water bath for 10 minutes. NS3/NS4A-2 was alliquoted at appropriate volumes and store at −80° C. (E. coli NS3 run at 2 nM in assay, aliquot at 25 μL. BV NS3 run at 3 nM in assay, aliquot at 30 μL).
# Sample compounds were dissolved to 10 mM in DMSO then diluted to 2.5 mM (1:4) in DMSO. Typically, compounds were added to an assay plate at 2.5 mM concentration, yielding upon dilution a starting concentration of 50 microM in the assay inhibition curve. Compounds were serial diluted in assay buffer to provide test solutions at lower concentrations.
# The E. coli. NS3/NS4A-2 was diluted to 4 nM NS3 (1:417.5 of 1.67 μM stock−18 μL 1.67 μM stock+7497 μL assay buffer). The BV NS3/NS4A-2 was diluted to 6 nM NS3 (1:278.3 of 1.67 μM stock−24 μL 1.67 μM stock+6655 μL assay buffer). Using the manual multichannel pipettor, careful not to introduce bubbles into the plate, add 50 μL assay buffer to wells A01-H01 of a black Costar 96-well polypropylene storage plate.
# Using the manual multichannel pipettor, careful not to introduce bubbles into the plate, add 50 μL of diluted NS3/NS4A-2 from step 2.2.6 to wells A02-H12 of plate in step 2.2.7. Using the manual multichannel pipettor, careful not to introduce bubbles into the plate, transfer 25 μL of the wells in drug dilution plate in step 2.2.5 to corresponding wells in assay plate in step 2.2.8. Change tips on multichannel pipettor for each row of compounds transferred. Using the manual multichannel pipettor, careful not to introduce bubbles into the plate, mix the wells from the assay plate in step 2.2.9 by aspirating and dispensing 35 μL of the 75 μL in each well five times. Change tips on multichannel pipettor for each row of wells mixed. Cover plate with a polystyrene plate lid and pre-incubate the plate from step 2.2.10 containing NS3 protease and sample compounds 10 minutes at room temperature. While plate from step 2.2.11 is pre-incubating, dilute RETS1 substrate in a 15 mL polypropylene centrifuge tube. Dilute RETS1 substrate to 8 μM (1:80.75 of 646 μM stock−65 μL 646 μM stock+5184 μL assay buffer).
# After the plate in step is done pre-incubating, and using the manual multichannel, add 25 μL of substrate to all wells on the plate. Quickly mix the plate as in step 2.2.10, mixing 65 μL of the 100 μL in the wells.
# Read the plate in kinetic mode on the Molecular Devices SpectraMax Gemini XS plate reader. Reader settings: Read time: 30 minutes, Interval: 36 seconds, Reads: 51, Excitation λ: 335 nm, Emission λ: 495 nm, cutoff: 475 nm, Automix: off, Calibrate: once, PMT: high, Reads/well: 6, Vmax pts: 21 or 28/51 depending on length of linearity of reaction
# IC50 s are determined using a four parameter curve fit equation, and converted to Ki's using the following Km's: • Full-length E. coli NS3—2.03 μM • Full-length BV NS3—1.74 μM where Ki=IC50/(1+[S]/Km)) • Quantitation by ELISA of the selectable marker protein, Neomycin phosphotransferase II (NPTII) in the HCV Sub-Genomic Replicon, GS4.3
# T1 sequence (P27958 1027-1657): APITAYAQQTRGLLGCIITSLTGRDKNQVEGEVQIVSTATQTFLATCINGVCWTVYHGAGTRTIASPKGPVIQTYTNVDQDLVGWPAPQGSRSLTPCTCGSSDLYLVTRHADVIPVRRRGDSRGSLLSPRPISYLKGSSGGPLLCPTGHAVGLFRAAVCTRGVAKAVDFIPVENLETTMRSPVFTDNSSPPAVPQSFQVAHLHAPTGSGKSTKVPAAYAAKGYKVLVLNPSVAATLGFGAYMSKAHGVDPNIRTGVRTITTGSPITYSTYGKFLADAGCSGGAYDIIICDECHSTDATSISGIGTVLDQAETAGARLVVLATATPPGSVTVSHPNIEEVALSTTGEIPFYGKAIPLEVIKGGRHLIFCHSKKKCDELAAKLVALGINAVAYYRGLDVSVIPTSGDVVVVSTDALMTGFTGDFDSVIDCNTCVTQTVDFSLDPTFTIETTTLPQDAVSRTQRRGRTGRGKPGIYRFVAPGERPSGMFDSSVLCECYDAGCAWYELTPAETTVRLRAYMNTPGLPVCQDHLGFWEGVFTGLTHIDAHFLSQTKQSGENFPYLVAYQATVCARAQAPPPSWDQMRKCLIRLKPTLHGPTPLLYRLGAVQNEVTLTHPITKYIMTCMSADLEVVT
row,Compound,IC50 [nM]
1,COc1ccccc1NC(=O)[C@@]12C[C@H]1/C=C\CCCCC[C@H](NC(=O)OC(C)(C)C)C(=O)N1CCC[C@H]1C(=O)N2 [Compound 2313],< 1000
2,CC(C)CNC(=O)[C@@]12C[C@H]1/C=C\CCCCC[C@H](NC(=O)OC(C)(C)C)C(=O)N1CCC[C@H]1C(=O)N2 [Compound 2314],< 1000
3,CC(C)(C)OC(=O)NC1CCCCCC=CC2CC2(C(=O)NCc2cccc(Cl)c2)NC(=O)C2CCCN2C1=O (stereo not drawn) [Compound 2309],< 1000
4,CC(C)(C)OC(=O)N[C@H]1CCCCC/C=C\[C@@H]2C[C@@]2(C(=O)NCC2CC2)NC(=O)[C@@H]2CCCN2C1=O [Compound 2302],< 10000

# Same assay, conditions: recombinant E. coli or Baculovirus full-length NS3 with NS4A-2; read-out: NS3-NS4 IC50
row,Compound,IC50 [nM]
1,CC(C)(C)OC(=O)N[C@H]1CCCCC/C=C\[C@@H]2C[C@@]2(C(=O)NS(=O)(=O)N2CCC2)NC(=O)[C@@H]2CCCN2C1=O [Compound 2206],< 10000
2,"CC(C)(C)OC(=O)N[C@H]1CCCCC/C=C\[C@@H]2C[C@@]2(C(=O)NS(=O)(=O)C2(C)CC2)NC(=O)[C@@H]2CCCN2C1=O [Compound 300, (1S,4R,6S,14S) tert-butyl 4-Cyclopropanesulfonylaminocarbonyl-2,15-dioxo-3,16-diaza-tricyclo[14.3.0.0^4,6]nonadec-7-ene-14-yl carbamate]",< 1000
3,COc1cccc(S(=O)(=O)NC(=O)[C@@]23C[C@H]2/C=C\CCCCC[C@H](NC(=O)OC2CCCC2)C(=O)N2C[C@H](OC(=O)N4CCc5ccccc5C4)C[C@H]2C(=O)N3)c1 [Compound 188],< 100
4,CC(C)(C)OC(=O)N[C@H]1CCCCC/C=C\[C@@H]2C[C@@]2(C(=O)NS(=O)(=O)C2CCCCC2)NC(=O)[C@@H]2CCCN2C1=O [Compound 2121],< 1000
5,CC(C)(C)OC(=O)N[C@H]1CCCCC/C=C\[C@@H]2C[C@@]2(C(=O)NS(=O)(=O)NCCc2cccc3ccccc23)NC(=O)[C@@H]2CCCN2C1=O [Compound 422],> 10000
6,COc1ccccc1S(=O)(=O)NC(=O)[C@@]12C[C@H]1/C=C\CCCCC[C@H](NC(=O)OC(C)(C)C)C(=O)N1CCC[C@H]1C(=O)N2 [Compound 2122],< 1000
7,CCOC(=O)[C@@]12C[C@H]1/C=C\CCCCC[C@H](N)C(=O)N1C[C@H](OC(=O)N3Cc4ccc(OCCNC(C)C)cc4C3)C[C@H]1C(=O)N2 [Compound 128],> 10000
8,CC(C)(C)OC(=O)N[C@H]1CCCCC/C=C\[C@@H]2C[C@@]2(C(=O)NS(=O)(=O)NCCc2cccc(Cl)c2)NC(=O)[C@@H]2CCCN2C1=O [Compound 411],> 10000
9,CC(C)(C)OC(=O)N[C@H]1CCCCC/C=C\[C@@H]2C[C@@]2(C(=O)NS(=O)(=O)N2CCOCC2)NC(=O)[C@@H]2CCCN2C1=O [Compound 2204],< 1000
10,CCOC(=O)[C@@]12C[C@H]1/C=C\CCCCC[C@H](NC(=O)OC(C)(C)C)C(=O)N1C[C@H](OC(=O)N3Cc4ccc(OCCN5CCOCC5)cc4C3)C[C@H]1C(=O)N2 [Compound 124],< 10000
11,CC(C)(C)OC(=O)N[C@H]1CCCCC/C=C\[C@@H]2C[C@@]2(C(=O)NS(=O)(=O)Nc2cccc(Cl)c2)NC(=O)[C@@H]2CCCN2C1=O [Compound 2239],< 1000
12,O=C(N[C@H]1CCC(F)(F)CC/C=C\[C@@H]2C[C@@]2(C(=O)NS(=O)(=O)C2CC2)NC(=O)[C@@H]2C[C@@H](OC(=O)N3Cc4cccc(F)c4C3)CN2C1=O)OC1CCCC1 [Compound 1005],< 100
13,CC(C)(C)OC(=O)N[C@H]1CCCCC/C=C\[C@@H]2C[C@@]2(C(=O)NS(=O)(=O)c2ccccc2F)NC(=O)[C@@H]2CCCN2C1=O [Compound 2124],< 10000
14,CC(C)(C)OC(=O)N[C@H]1CCCCC/C=C\[C@@H]2C[C@@]2(C(=O)NS(=O)(=O)c2cccc(Cl)c2)NC(=O)[C@@H]2CCCN2C1=O [Compound 2110],< 10000
15,COC[C@@H]1CCCN1S(=O)(=O)NC(=O)[C@@]12C[C@H]1/C=C\CCCCC[C@H](NC(=O)OC(C)(C)C)C(=O)N1CCC[C@H]1C(=O)N2 [Compound 2252],< 1000
16,CCCC1(S(=O)(=O)NC(=O)[C@@]23C[C@H]2/C=C\CCCCC[C@H](NC(=O)OC(C)(C)C)C(=O)N2CCC[C@H]2C(=O)N3)CC1 [Compound 304],< 10000

row,Compound,IC50 [nM]
1,CC(C)(C)OC(=O)N[C@H]1CCCCC/C=C\[C@@H]2C[C@@]2(C(=O)NS(=O)(=O)c2cc3ccccc3s2)NC(=O)[C@@H]2CCCN2C1=O [Compound 307],< 10000
2,COc1ccc(S(=O)(=O)NC(=O)[C@@]23C[C@H]2/C=C\CCCCC[C@H](NC(=O)OC(C)(C)C)C(=O)N2CCC[C@H]2C(=O)N3)cc1 [Compound 2133],< 10000
3,CC(C)(C)OC(=O)N[C@H]1CCCCC/C=C\[C@@H]2C[C@@]2(C(=O)NS(=O)(=O)/C=C/c2ccccc2)NC(=O)[C@@H]2CCCN2C1=O [Compound 2125],< 1000
4,CC(C)(C)OC(=O)N[C@H]1CCCCC/C=C\[C@@H]2C[C@@]2(C(=O)NS(=O)(=O)Cc2ccc(Cl)cc2)NC(=O)[C@@H]2CCCN2C1=O [Compound 2119],< 1000
5,C=CCC1(S(=O)(=O)NC(=O)[C@@]23C[C@H]2/C=C\CCCCC[C@H](NC(=O)OC(C)(C)C)C(=O)N2CCC[C@H]2C(=O)N3)CC1 [Compound 305],< 10000
6,CCCS(=O)(=O)NC(=O)C12CC1C=CCCCCCCCC(NC(=O)OC(C)(C)C)C(=O)N1CCCC1C(=O)N2 (stereo not drawn) [Compound 2105],< 1000
7,CC(C)(C)OC(=O)N[C@H]1CCCCC/C=C\[C@@H]2C[C@@]2(C(=O)NCc2ccncc2)NC(=O)[C@@H]2CCCN2C1=O [Compound 502],> 10000
8,COCC1(S(=O)(=O)NC(=O)[C@@]23C[C@H]2/C=C\CCCCC[C@H](NC(=O)OC(C)(C)C)C(=O)N2CCC[C@H]2C(=O)N3)CC1 [Compound 302],< 10000
9,O=C1N[C@]2(C(=O)NS(=O)(=O)C3CC3)C[C@H]2/C=C\CCCCC[C@H](Nc2c(N3C4CCC3CC4)c(=O)c2=O)C(=O)N2C[C@H](OC(=O)N3Cc4cccc(F)c4C3)C[C@@H]12 [Compound 199],< 100
10,CCOC(=O)[C@@]12C[C@H]1/C=C\CCCCC[C@H](NC(=O)OC(C)(C)C)C(=O)N1C[C@H](OC(=O)N3Cc4ccc(OCCNC(C)C)cc4C3)C[C@H]1C(=O)N2 [Compound 125],< 10000
11,CC(C)(C)OC(=O)N[C@H]1CCCCC/C=C\[C@@H]2C[C@@]2(C(=O)NS(=O)(=O)Nc2ccc(C(F)(F)F)cc2)NC(=O)[C@@H]2CCCN2C1=O [Compound 2235],< 1000
12,CCOC(=O)[C@@]12C[C@H]1/C=C\CCCCC[C@H](Nc1c(N3CCC3)c(=O)c1=O)C(=O)N1C[C@H](OC(=O)N3Cc4cccc(F)c4C3)C[C@H]1C(=O)N2 [Compound 645],< 100
13,CC(C)(C)OC(=O)N[C@H]1CCCCC/C=C\[C@@H]2C[C@@]2(C(=O)NS(=O)(=O)Nc2ccccc2Cl)NC(=O)[C@@H]2CCCN2C1=O [Compound 2233],< 1000
14,CC(C)(C)OC(=O)N[C@H]1CCCCC/C=C\[C@@H]2C[C@@]2(C(=O)NS(=O)(=O)C(C)(C)C)NC(=O)[C@@H]2CCCN2C1=O [Compound 303],> 10000
15,CC(C)(C)OC(=O)N[C@H]1CCCCC/C=C\[C@@H]2C[C@@]2(C(=O)NS(=O)(=O)Nc2ccc(C#N)cc2)NC(=O)[C@@H]2CCCN2C1=O [Compound 2241],< 1000
16,Cc1noc(C)c1S(=O)(=O)NC(=O)[C@@]12C[C@H]1/C=C\CCCCC[C@H](NC(=O)OC(C)(C)C)C(=O)N1CCC[C@H]1C(=O)N2 [Compound 308],> 10000
